The values below come from patent US4109011A, “Insecticide carbamates of N-(polychloroallyl)-amino-phenols” (priority 1975, dated 1978).

Structures are written as SMILES. Read-outs that look alike come from different tables or passages of the source.

For series [1], the system named is parasites. The note with it: vs N-dimethyl substituted homolog; Miskus et al 1968; cited from earlier work.
Series [2] relates to Musca Domestica. The series is described as follows: Biological activity on Musca domestica, topical application to adults. It counts as in vivo. The note with it: read-out: Percent of Mortality. The method, then: Biological Activity on Musca Domestica (Diptera)
Four day old adults were treated by topical application through a microsyringe with 1 mm^3 of an acetonic solution of the compounds shown in such concentrations that they received doses of 5γ/insect; 2γ/insect; 0.5γ/insect of active principle. The mortality percentage 24 hours after the treatment is reported in Table 8 (mortality of insects treated with 1 mm^3 of acetone = 0).

The test system of series [3] is Meloidogyne Incognita. The series is described as follows: Biological activity on Meloidogyne incognita (nematocide activity, galls on tomato seedlings). It is filed as in vivo. The note with it: vs control. The method, then: Biological Activity on Meloidogyne Incognita (Nematoda)
A 1:1 mixture of field earth and sand infested by new-born larvae and eggs of the nematode was treated by uniformly mixing with a hydroacetone dispersion (20% by vol. of acetone) at a concentration of 0.1% and of 0.02% of the compounds under test so as to get soil samples containing 100 ppm and 20 ppm, respectively, of active principle. The soil was introduced into plastic pots and after 5 days, 5 tomato seedlings about 15 cm high were transplanted into each of them. Fourteen days after transplantation, the roots of the seedlings extracted from the soil were examined in order to determine the degree of infestation by counting the galls which had formed.
The nematocide activity is expressed in Table 13 as the percentage of infestation reduction with respect to the control (seedlings transplanted into the same soil treated with a dispersion free from active principle).

Series [4] deals with Tetranychus Urticae. The series is described as follows: Biological activity on Tetranychus urticae eggs, bean leaf discs. It counts as in vivo. From the text:
Biological Activity on Tetranychus Urticae (Acari)
Small discs of bean leaves were infested with acarus eggs and successively treated by spraying with an aqueous dispersion of a compound of this invention and Aminocarb as a comparison, at concentrations of 0.1 and 0.01%. The mortality percentage of the control, untreated discs, was zero.
(§1) To show the variation in activity from one compound to another, depending on the species used, the activities of compounds according to this invention were investigated at different concentrations, expressed as percent of active principle, on various infesting species. The mortality percentage was computed in the same way as in the preceding examples.

Series [5] can be described thus: Acute toxicity on white rats, administered orally. The settings on record: rat, in vivo, po.
Series [6] concerns Culex Pipiens. The series is described as follows: Biological activity on Culex pipiens (mosquito larvae in aqueous dispersion). It is filed as in vivo.
Source text: Biological Activity on Culex Pipiens (Diptera)
Mosquito larvae of the third and fourth ages were introduced into glass pots containing an aqueous dispersion of the compounds shown at 2 ppm and 0.2 ppm.
as §1

Series [7] relates to Macrosiphum Euphorbiae. The series is described as follows: Biological activity on Macrosiphum euphorbiae (aphides), potato seedlings sprayed with aqueous dispersion. It is filed as in vivo. The method, then: Biological Activity on Macrosiphum Euphorbiae (Aphides)
Potato seedlings, cultivated in pots, were infested with adult aphide females and, after a few hours, were sprayed with an aqueous dispersion of the compounds listed in Table 6. The mortality percentage was determined 24 hours after the treatment (on control non-treated seedlings, the mortality percentage was 0).
as §1

Series [8] has as its system Leptinotarsa Decimlineata. The series is described as follows: Biological activity on Leptinotarsa decemlineata larvae, sprayed potato seedlings. The settings on record: read-out: Percent of Mortality. It is filed as in vivo.
Series [9] has as its system Leptinotarsa Decimlineata. Described as above. It is filed as in vivo.
Source text: Biological Activity on Leptinotarsa Decimlineata Coleoptera
Potato seedlings cultivated in pots were infested with 4-day old larvae and sprayed with an aqueous dispersion of the compounds according to this invention and Aminocarb as a comparison at doses of […]; respectively. The mortality percentage of the control, untreated seedlings, was zero.
as §1

Series [10] concerns Pieris Brassicae. The series is described as follows: Biological activity on Pieris brassicae larvae, sprayed cut cauliflower leaves. It counts as in vivo. The note with it: for mortality at 0.1 %: 0.1 percent, larvae, read-out: Percent of Mortality.
Source text: Biological Activity on Pieris Brassicae (Lepidoptera)
Cut leaves of cauliflower were sprayed with an aqueous dispersion of compound according to this invention at a 0.1% concentration. After drying, they were infested with 5-day old larvae. The mortality percentage of the control, untreated leaves, was zero.
as §1

For series [11], the system named is Tetran Urt. adults. The series is described as follows: Activity on Tetranychus urticae adults (Table 14). It counts as in vivo. The note with it: 1% a.p., read-out: % mort. Tetran. Urt. adults.
Source text: as §1

The test system of series [12] is Culex Pipiens. The series is described as follows: Biological activity on Culex pipiens (mosquito larvae in aqueous dispersion). The settings on record: read-out: % mort. Culex Pipiens. It counts as in vivo.
Where [13] appears, read: 24 h, read-out: Percent of Mortality.
Where [14] appears, read: 24 h, read-out: Mortality Percent.
The mark [15] stands for this setting: read-out: % mort. Culex Pipiens.
Where [16] appears, read: read-out: % mort. Macrosiphum Euphorbiae.
The mark [17] stands for this setting: read-out: % mort. Leptinot. Decemlin.

In general, LD50 refers to the dose at which mortality reaches 50%.

Consider `CNC(=O)Oc1cc(C)c(NC)c(C)c1`, for which the relative insecticidal activity result in series [1] is reported as “only a bit less active than the N-dimethyl substituted homolog”.

In the case of `CNC(=O)Oc1ccc(N(C)C)c(C)c1` [Aminocarb, reference compound], the mortality at 0.5 µg/insect in [2] (0.5 γ per insect, 24 hours) is 0%. The mortality at 2 µg/insect in series [2] (2 γ per insect, 24 hours) amounted to 50%. In series [2] (5 γ per insect, 24 hours), the mortality at 5 µg/insect was determined as 85%. The “Reduction of Infestation” value in series [3] (20 ppm in soil) was 0%; in series [3] (100 ppm in soil), 95%. Moreover, the mortality at 0.01 % in series [4] (foliar, 0.01%, eggs, read-out: Percent of Mortality) was 0%; in series [7] (0.01 percent dispersion, 24 hours, read-out: Mortality Percent), 46%; in series [8] (0.01% concentr., larvae) it was 45%. Moreover, the mortality at 0.1 % in series [4] (foliar, 0.1%, eggs, read-out: Percent of Mortality) turned out to be 40%; in series [9] (0.1% concentr., larvae, read-out: Percent of Mortality), 100%. The LD50 in series [5] was determined as 30 mg/kg. Further, in [6] (0.2 ppm, 24 hours, read-out: Percent of Mortality), the mortality at 0.2 ppm stood at 0%. In [6] (2 ppm, 24 hours, read-out: Percent of Mortality), the mortality at 2 ppm was 25%.

Take `CNC(=O)Oc1cccc(NCC=C(Cl)Cl)c1` [M 6370]: the mortality at 0.1 % was 90% in [10] and 100% in series [9] (read-out: Percent of Mortality). The “Reduction of Infestation” value in series [3] (20 ppm in soil) and in series [3] (100 ppm in soil) was 100% in each case. Besides, the LD50 in series [5] turned out to be 100 mg/kg. In addition, in series [6] (setting [13]), the mortality at 0.2 ppm turned out to be 17%. Also, the mortality at 2 ppm in [6] (setting [13]) was determined as 94%. Also, the mortality at 0.01 % in series [7] (setting [14]) and in series [8] was 100% each time.

Regarding `CNC(=O)Oc1ccc(C)c(NCC=C(Cl)Cl)c1` [M 6430, N-methylcarbamate of 4-methyl-3-(3,3-dichloroallylamino)-phenol], the mortality at 0.1 % in series [10] turned out to be 100%. Moreover, in [2] (24 h), the mortality at 0.5 µg/insect came to 100%, the mortality at 2 µg/insect was found to be 100% and the mortality at 5 µg/insect turned out to be 100%. In addition, in [3] (20 ppm in soil), the “Reduction of Infestation” value came to 88%. Also, the “Reduction of Infestation” value in series [3] (100 ppm in soil) amounted to 100%. In series [5], this molecule yielded an LD50 of 100 mg/kg. Besides, in [6] (setting [13]), the mortality at 0.2 ppm worked out at 80% and the mortality at 2 ppm worked out at 100%. Also, the mortality at 0.01 % in [7] (setting [14]) turned out to be 84%. The mortality at 0.01 % in series [8] turned out to be 100%. Moreover, in series [9] (read-out: Percent of Mortality), the mortality at 0.1 % was found to be 100%.

For the molecule `CNC(=O)Oc1ccc(C)c(NCC(Cl)=C(Cl)Cl)c1` [M 6738], in [2] (24 h), the mortality at 2 µg/insect amounted to 100% and the mortality at 5 µg/insect worked out at 100%. The LD50 in [5] is 100 mg/kg. Besides, in [6] (setting [13]), the mortality at 2 ppm worked out at 100%. The mortality at 0.01 % in series [8] was 100%. For the same molecule, the mortality at 0.1 % in series [9] (read-out: Percent of Mortality) was found to be 100%.

For `CNC(=O)Oc1cccc(NCC=C(Cl)Cl)c1` [M 7360], the mortality at 1 % in series [10] (Table 14, 1% a.p., read-out: % mort. Pieris Brassicae) worked out at 45%; in series [4] (topical, read-out: % mort. Tetran. Urt. eggs), 6%; in [11], 23%; in series [7] (setting [16]) it was 100%; in [9] (setting [17]), 100%. In addition, the mortality at 0.2 ppm in [6] (setting [15]) came out at 37%. Further, the mortality at 2 ppm in [6] (setting [15]) amounted to 100%. Further, the mortality at 0.01 % in series [7] (setting [16]) is 42%; in series [9] (setting [17]), 0%. The mortality at 0.1 % in [7] (setting [16]) turned out to be 95%; in [9] (setting [17]) it was 100%. Moreover, in [12], the mortality at 0.02 ppm was determined as 0%.
